Usually IC50 stands for the concentration needed to halve the response being measured.

This is an account of results in US7932262B2 (Novartis AG, priority 2006, dated 2011).

Structures are written as SMILES.

Experiment [1] deals with A2780 cells. Put plainly: Cell Proliferation Assay (Cell Titer Glo), A2780. The format is cell-based. The conditions noted are these: Homo sapiens, 72 h; A2780 cells, 3 days incubation; read-out: CPEC50 A2780. On the procedure:
IV. Cell Proliferation Assay Protocol:
A2780, PC-3, or PC3MM cells were seeded at 1000 cells/well in 100 μL/well (10.000 cells/mL) growth media in 96-well plates. Cells were allowed to adhere to the bottom of plates for 3-5 hours in a 37° C. 5% CO2 incubator. Compounds were dissolved in DMSO and then transferred to the cell plates. The cells were incubated with the compounds for 3 days in a 37° C. 5% CO2 incubator. The growth medium containing the compounds was then removed from the cells and fresh medium was added, followed by 100 μL of Cell Titer Glo assay reagent (Promega). This mixture was shaken for 1 minute and then incubated without shaking for 10 minutes. Activity determinations for the compounds were made by detection on a Trilux Instrument.
On the technique in general: Cellular ATP, detected with luciferase, serves as a proxy for viable cell number.

Experiment [2] has as its target T1, PDK1 kinase (Homo sapiens, UniProt O15530).
T1 sequence (O15530 1-556): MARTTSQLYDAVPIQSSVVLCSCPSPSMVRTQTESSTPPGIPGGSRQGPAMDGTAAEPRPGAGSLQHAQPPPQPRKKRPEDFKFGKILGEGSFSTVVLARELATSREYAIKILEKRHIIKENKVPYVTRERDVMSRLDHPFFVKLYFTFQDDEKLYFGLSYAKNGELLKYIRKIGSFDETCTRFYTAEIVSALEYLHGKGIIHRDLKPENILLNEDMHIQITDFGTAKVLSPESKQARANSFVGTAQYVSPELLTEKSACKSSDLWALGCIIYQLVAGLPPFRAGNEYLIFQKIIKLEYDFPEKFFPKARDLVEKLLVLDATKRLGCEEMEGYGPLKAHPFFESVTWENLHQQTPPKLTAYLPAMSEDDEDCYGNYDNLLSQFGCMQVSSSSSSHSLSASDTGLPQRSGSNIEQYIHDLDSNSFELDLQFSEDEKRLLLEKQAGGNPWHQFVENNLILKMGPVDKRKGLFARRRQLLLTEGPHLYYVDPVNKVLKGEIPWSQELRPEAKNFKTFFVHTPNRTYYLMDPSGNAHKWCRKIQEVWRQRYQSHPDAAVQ
Put plainly: PDK1 Kinase Alpha Screen Assay. The format is biochemical. The conditions noted are these: read-out: PDK1 IC50. Put shortly: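 Kinase inhibition measured as loss of AlphaScreen signal from antibody recognition of phosphorylated biotin-PDK1-4 peptide. Reactions contain 10 uM ATP and 50 nM peptide, run 3-18 hours before EDTA quench and overnight bead development at room temperature.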

For the molecule `CN1CC[C@H](Oc2cccc3cnc(Nc4ccc(S(N)(=O)=O)cc4)nc23)C1` [Compound 34, 4-[8-((S)-1-Methyl-pyrrolidin-3-yloxy)-quinazolin-2-ylamino]-benzenesulfonamide], the EC50 in experiment [1] is below 5 µM. In experiment [2], the IC50 is below 5 µM.

For the molecule `CN1CC[C@@H](Oc2cccc3cnc(Nc4ccc(S(N)(=O)=O)cc4)nc23)C1` [Compound 38, 4-[8-((R)-1-Methyl-pyrrolidin-3-yloxy)-quinazolin-2-ylamino]-benzenesulfonamide], the EC50 in experiment [1] was below 5 µM. Also, the IC50 in experiment [2] was below 5 µM.

For `CN1CCCC(Oc2cccc3cnc(Nc4ccc(S(N)(=O)=O)cc4)nc23)C1` (stereo not shown) [Compound 39, 4-[8-(1-Methyl-piperidin-3-yloxy)-quinazolin-2-ylamino]-benzenesulfonamide], the EC50 in experiment [1] is below 5 µM. For the same molecule, the IC50 in experiment [2] was below 5 µM.

For the molecule `CC(C)N1CC(Oc2cccc3cnc(Nc4ccc(S(N)(=O)=O)cc4)nc23)C1` [Compound 47, 4-[8-(1-Isopropyl-azetidin-3-yloxy)-quinazolin-2-ylamino]-benzenesulfonamide], in experiment [1], the EC50 is below 5 µM. Moreover, the IC50 in experiment [2] is below 5 µM.

Consider `NS(=O)(=O)c1ccc(Nc2ncc3cccc(OC4CNC4)c3n2)cc1` [Compound 48, 4-[8-(Azetidin-3-yloxy)-quinazolin-2-ylamino]-benzenesulfonamide], for which the EC50 in experiment [1] lay within 5 to 10 µM. For the same molecule, the IC50 in experiment [2] is below 5 µM.

`CC(C)CN1CC(Oc2cccc3cnc(Nc4ccc(S(N)(=O)=O)cc4)nc23)C1` [Compound 49, 4-[8-(1-Isobutyl-azetidin-3-yloxy)-quinazolin-2-ylamino]-benzenesulfonamide]: the EC50 in experiment [1] was below 5 µM. Moreover, in experiment [2], the IC50 was below 5 µM.

In the case of `CCN1CC(Oc2cccc3cnc(Nc4ccc(S(N)(=O)=O)cc4)nc23)C1` [Compound 50, 4-[8-(1-Ethyl-azetidin-3-yloxy)-quinazolin-2-ylamino]-benzenesulfonamide], in experiment [1], the EC50 is below 5 µM. Also, the IC50 in experiment [2] was below 5 µM.

On to `NS(=O)(=O)c1ccc(Nc2ncc3ccc(-c4ccc5c(c4)CCNC5=O)c(OC4CCNCC4)c3n2)cc1` [Compound 64, 4-[7-(1-Oxo-1,2,3,4-tetrahydro-isoquinolin-6-yl)-8-(piperidin-4-yloxy)-quinazolin-2-ylamino]-benzenesulfonamide], for which the EC50 in experiment [1] fell in the range of 5 to 10 µM. Also, the 50% inhibitory concentration (IC50) in experiment [2] is below 5 µM.

In the case of `CC(=O)c1ccc(-c2cccc3cnc(Nc4ccc(S(N)(=O)=O)cc4)nc23)cc1` [Compound 88, 4-[8-(4-Acetyl-phenyl)-quinazolin-2-ylamino]-benzenesulfonamide], in experiment [1], the EC50 lay within 5 to 10 µM. In addition, the IC50 in experiment [2] is below 5 µM.

On to `NS(=O)(=O)c1ccc(Nc2ncc3cccc(-c4ccc(-c5ccn[nH]5)cc4)c3n2)cc1` [Compound 89, 4-{8-[4-(2H-Pyrazol-3-yl)-phenyl]-quinazolin-2-ylamino}-benzenesulfonamide], for which the EC50 in experiment [1] is below 5 µM. Also, the IC50 in experiment [2] is below 5 µM.

For `NC(=O)c1cccc(-c2cccc3cnc(Nc4ccc(S(N)(=O)=O)cc4)nc23)c1` [Compound 90, 3-[2-(4-Sulfamoyl-phenylamino)-quinazolin-8-yl]-benzamide], the EC50 in experiment [1] was below 5 µM. In experiment [2], the IC50 was below 5 µM.

`CS(=O)(=O)c1cccc(-c2cccc3cnc(Nc4ccc(S(N)(=O)=O)cc4)nc23)c1` [Compound 91, 4-[8-(3-Methanesulfonyl-phenyl)-quinazolin-2-ylamino]-benzenesulfonamide]: the EC50 in experiment [1] was below 5 µM. In addition, the IC50 in experiment [2] is below 5 µM.

Regarding `CS(=O)(=O)Nc1cccc(-c2cccc3cnc(Nc4ccc(S(N)(=O)=O)cc4)nc23)c1` [Compound 92, 4-[8-(3-Methanesulfonylamino-phenyl)-quinazolin-2-ylamino]-benzenesulfonamide], in experiment [1], the EC50 is below 5 µM. Also, the IC50 in experiment [2] was below 5 µM.

Regarding `CC(=O)Nc1cccc(-c2cccc3cnc(Nc4ccc(S(N)(=O)=O)cc4)nc23)c1` [Compound 93, N-{3-[2-(4-Sulfamoyl-phenylamino)-quinazolin-8-yl]-phenyl}-acetamide], the EC50 in experiment [1] was below 5 µM. Further, the half-inhibitory concentration (IC50) in experiment [2] is below 5 µM.

As for `NS(=O)(=O)c1ccc(Nc2ncc3cccc(-c4ccc5c(c4)OCO5)c3n2)cc1` [Compound 95, 4-(8-Benzo[1,3]dioxol-5-yl-quinazolin-2-ylamino)-benzenesulfonamide], the EC50 in experiment [1] was below 5 µM. Further, the IC50 in experiment [2] is below 5 µM.

For the molecule `NC(=O)c1ccc(-c2cccc3cnc(Nc4ccc(S(N)(=O)=O)cc4)nc23)cc1` [Compound 96, 4-[2-(4-Sulfamoyl-phenylamino)-quinazolin-8-yl]-benzamide], the EC50 in experiment [1] is below 5 µM. Also, the IC50 in experiment [2] is below 5 µM.

For `NS(=O)(=O)c1ccc(Nc2ncc3cccc(-c4ccnc(F)c4)c3n2)cc1` [Compound 97, 4-[8-(2-Fluoro-pyridin-4-yl)-quinazolin-2-ylamino]-benzenesulfonamide], the EC50 in experiment [1] is below 5 µM. Besides, the IC50 in experiment [2] was below 5 µM.

As to `NS(=O)(=O)c1ccc(Nc2ncc3cccc(-c4cccnc4)c3n2)cc1` [Compound 98, 4-(8-Pyridin-3-yl-quinazolin-2-ylamino)-benzenesulfonamide], the EC50 in experiment [1] lay in the range of 5 to 10 µM. For the same molecule, the IC50 in experiment [2] was below 5 µM.

In the case of `NS(=O)(=O)c1ccc(Nc2ncc3cccc(-c4ccncc4)c3n2)cc1` [Compound 99, 4-(8-Pyridin-4-yl-quinazolin-2-ylamino)-benzenesulfonamide], the EC50 in experiment [1] fell in the range of 5 to 10 µM. The IC50 in experiment [2] is below 5 µM.

Regarding `COCCNc1cc(-c2cccc3cnc(Nc4ccc(S(N)(=O)=O)cc4)nc23)ccn1` [Compound 100, 4-{8-[2-(2-Methoxy-ethylamino)-pyridin-4-yl]-quinazolin-2-ylamino}-benzenesulfonamide], the EC50 in experiment [1] was below 5 µM. Besides, the IC50 in experiment [2] was below 5 µM.

Turning to `CC(=O)NCCNc1cc(-c2cccc3cnc(Nc4ccc(S(N)(=O)=O)cc4)nc23)ccn1` [Compound 101, N-(2-{4-[2-(4-Sulfamoyl-phenylamino)-quinazolin-8-yl]-pyridin-2-ylamino}-ethyl)-acetamide], the EC50 in experiment [1] is below 5 µM. In addition, the IC50 in experiment [2] was below 5 µM.

On to `NS(=O)(=O)c1ccc(Nc2ncc3cccc(-c4ccnc(NCCN5CCCC5)c4)c3n2)cc1` [Compound 102, 4-{8-[2-(2-Pyrrolidin-1-yl-ethylamino)-pyridin-4-yl]-quinazolin-2-ylamino}-benzenesulfonamide], for which the EC50 in experiment [1] is below 5 µM. Besides, the IC50 in experiment [2] was below 5 µM.

As to `NS(=O)(=O)c1ccc(Nc2ncc3cccc(-c4cnoc4)c3n2)cc1` [Compound 103, 4-(8-Isoxazol-4-yl-quinazolin-2-ylamino)-benzenesulfonamide], in experiment [1], the EC50 was below 5 µM. In experiment [2], the IC50 is below 5 µM.

Turning to `NS(=O)(=O)c1ccc(Nc2ncc3cccc(-c4cn[nH]c4)c3n2)cc1` [Compound 104, 4-[8-(1H-Pyrazol-4-yl)-quinazolin-2-ylamino]-benzenesulfonamide], the EC50 in experiment [1] was below 5 µM. In addition, the concentration for half-maximal inhibition (IC50) in experiment [2] is below 5 µM.

In the case of `NS(=O)(=O)c1ccc(Nc2ncc3cccc(-c4ccnc(N5CCOCC5)c4)c3n2)cc1` [Compound 105, 4-[8-(2-Morpholin-4-yl-pyridin-4-yl)-quinazolin-2-ylamino]-benzenesulfonamide], in experiment [1], the EC50 is 5 to 10 µM. Further, the IC50 in experiment [2] was below 5 µM.

For the molecule `CN1CCN(c2cc(-c3cccc4cnc(Nc5ccc(S(N)(=O)=O)cc5)nc34)ccn2)CC1` [Compound 106, 4-{8-[2-(4-Methyl-piperazin-1-yl)-pyridin-4-yl]-quinazolin-2-ylamino}-benzenesulfonamide], the EC50 in experiment [1] was below 5 µM. Besides, the IC50 in experiment [2] is below 5 µM.

In the case of `NS(=O)(=O)c1ccc(Nc2ncc3cccc(-c4ccnc(N5CCS(=O)(=O)CC5)c4)c3n2)cc1` [Compound 107, 4-{8-[2-(1,1-Dioxo-1 lambda*6*-thiomorpholin-4-yl)-pyridin-4-yl]-quinazolin-2-ylamino}-benzenesulfonamide], the EC50 in experiment [1] was below 5 µM. Also, the IC50 in experiment [2] is below 5 µM.

With `NS(=O)(=O)c1ccc(Nc2ncc3cccc(-c4ccnc(N5CCNC(=O)C5)c4)c3n2)cc1` [Compound 108, 4-{8-[2-(3-Oxo-piperazin-1-yl)-pyridin-4-yl]-quinazolin-2-ylamino}-benzenesulfonamide], the EC50 in experiment [1] is below 5 µM. Further, the 50% inhibitory concentration (IC50) in experiment [2] is below 5 µM.

For the molecule `Nc1cc(-c2cccc3cnc(Nc4ccc(S(N)(=O)=O)cc4)nc23)ccn1` [Compound 109, 4-[8-(2-Amino-pyridin-4-yl)-quinazolin-2-ylamino]-benzenesulfonamide], the EC50 in experiment [1] lay within 5 to 10 µM. In addition, the IC50 in experiment [2] was below 5 µM.
